The values below come from patent US6306869A, “N-oxides” (Byk Gulden Lomberg Chemische Febrik GmbH, priority 1998, dated 2001).

In experiment [1] the target is PDE4 (cAMP-specific). Put plainly: Inhibition of PDE isoenzymes: PDE4. Format: biochemical. The following applies: cytosol of human polymorphonuclear leukocytes (PMNL), cAMP as substrate, motapizone 1 μM present.
In experiment [2] the target is T1, PDE3 (cGMP-inhibited) (Homo sapiens, UniProt Q14432).
T1 construct: were investigated in homogenates of human blood platelets; from tissue; host or cells: homogenates of human blood platelets
The experiment is described as follows: Inhibition of PDE isoenzymes: PDE3. The following applies: homogenates of human blood platelets, cAMP as substrate; read-out: PDE3 [-loglC50,mol/l] (converted). Format: biochemical. As to the method:
The PDE activity was determined according to Thompson et al. (1) with some modifications (2). The test samples contained 40 mM tris HCl (pH 7.4), 5 mM MgCl2, 0.5 μM cAMP or cGMP, [^3 H] cAMP or [3H]CGMP (about 50,000 cpm/sample), the PDE isoenzyme-specific additions described in greater detail below, the indicated concentrations of inhibitor and an aliquot of the enzyme solution in a total sample volume of 200 μl. […] After preincubation at 37° C. for 5 minutes, the reaction was started by addition of the substrate (cAMP or cGMP). The samples were incubated at 37° C. for a further 15 min. The reaction was terminated by addition of 50 μl of 0.2 N HCl. After cooling on ice for 10 minutes and addition of 25 μg of 5'-nucleotidase (snake venom from Crotalus atrox), the mixture was again incubated at 37° C. for 10 min and the samples were then applied to QAE Sephadex A-25 columns. The columns were eluted with 2 ml of 30 mM ammonium formate (pH 6.0). The radioactivity of the eluate was measured and corrected by the corresponding blank values. The proportion of hydrolysed nucleotide in no case exceeded 20% of the original substrate concentration.
PDE3 (cGMP-inhibited) and PDE5 (cGMP-specific) were investigated in homogenates of human blood platelets [Schudt et al. (4)] using cAMP or cGMP as a substrate.
The IC50 values were determined from the concentration-inhibition curves by nonlinear regression using the GraphPad InPlot™ program (GraphPad Software Inc., […], USA).

T1 sequence (Q14432 whole entry): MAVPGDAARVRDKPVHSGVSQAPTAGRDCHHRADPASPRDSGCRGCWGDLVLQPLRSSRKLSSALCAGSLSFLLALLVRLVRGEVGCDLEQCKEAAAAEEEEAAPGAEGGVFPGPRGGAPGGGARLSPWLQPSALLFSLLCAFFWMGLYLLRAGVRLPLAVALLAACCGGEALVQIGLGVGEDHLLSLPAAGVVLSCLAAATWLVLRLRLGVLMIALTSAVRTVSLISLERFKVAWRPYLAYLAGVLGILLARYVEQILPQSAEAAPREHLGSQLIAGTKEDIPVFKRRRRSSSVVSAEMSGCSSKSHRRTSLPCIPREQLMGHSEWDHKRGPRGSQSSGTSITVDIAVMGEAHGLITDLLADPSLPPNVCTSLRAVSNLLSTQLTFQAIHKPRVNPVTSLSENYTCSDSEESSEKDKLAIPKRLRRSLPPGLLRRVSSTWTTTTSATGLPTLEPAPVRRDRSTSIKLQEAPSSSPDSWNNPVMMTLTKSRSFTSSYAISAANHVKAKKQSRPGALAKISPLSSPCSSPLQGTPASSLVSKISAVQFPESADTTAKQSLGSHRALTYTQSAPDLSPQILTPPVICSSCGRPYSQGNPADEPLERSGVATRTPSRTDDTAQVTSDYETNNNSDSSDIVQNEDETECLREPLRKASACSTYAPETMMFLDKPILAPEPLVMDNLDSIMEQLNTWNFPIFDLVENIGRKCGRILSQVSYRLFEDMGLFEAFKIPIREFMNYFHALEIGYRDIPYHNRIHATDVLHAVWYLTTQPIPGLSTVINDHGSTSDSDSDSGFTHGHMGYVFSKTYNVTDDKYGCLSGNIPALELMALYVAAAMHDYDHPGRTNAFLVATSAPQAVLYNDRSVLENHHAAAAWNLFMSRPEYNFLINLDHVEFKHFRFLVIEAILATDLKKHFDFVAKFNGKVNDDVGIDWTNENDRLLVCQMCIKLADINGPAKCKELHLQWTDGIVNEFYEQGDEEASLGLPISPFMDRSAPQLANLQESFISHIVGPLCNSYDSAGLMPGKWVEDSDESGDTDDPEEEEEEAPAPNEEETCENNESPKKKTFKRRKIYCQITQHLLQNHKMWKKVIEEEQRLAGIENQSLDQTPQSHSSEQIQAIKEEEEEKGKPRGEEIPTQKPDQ

Turning to `CCOc1cc2c(cc1OC)C(c1ccc(C(=O)N(C(C)C)C(C)C)cc1)=N[C@@H]1CC[N+](C)([O-])C[C@H]21` (single isomer, unassigned) [Compound 1, cis-9-ethoxy-8-methoxy-2-methyl-6-(4-diisopropylaminocarbonylphenyl)-1,2,3,4,4a,10b-hexahydrobenzo[c][1,6]naphthyridine N-2-oxide], the “PDE4 [-loglC50,mol/l]” value in experiment [1] was 7.20. Besides, the IC50 in experiment [2] was 776 nM.
The matching figures for `CCCCN(CCCC)C(=O)c1ccc(C2=N[C@@H]3CC[N+](C)([O-])C[C@@H]3c3cc(OCCC)c(OC)cc32)cc1` (relative stereo) [Compound 3, cis-8-methoxy-2-methyl-9-propoxy-6-(4-dibutylaminocarbonylphenyl)-1 ,2,3,4,4a,10b-hexahydrobenzo[c][1,6]naphthyridine N-2-oxide]: 7.53 and 2090 nM.
On the same counts, the results for `CCCCN(CCCC)C(=O)c1ccc(C2=N[C@@H]3CC[N+](C)([O-])C[C@@H]3c3cc(OCC)c(OC)cc32)cc1` (relative stereo) [Compound 2, cis-9-ethoxy-2-methyl-8-methoxy-6-(4-dibutylaminocarbonylphenyl)-1 ,2,3,4,4a,10b-hexahydrobenzo[c][1,6]naphthyridine N-2-oxide] are 7.98 and 1070 nM.
